Measured values taken from patent US5871779A, “Treatment of arthropathies with vanadate compounds or analogues thereof” (Mount Sinai Hospital Corporation, priority 1996, dated 1999).
“And” between values parts separate entries of the source, which are not always exact repeats. Equal entries are not always repeated.

Columns and labels:
tumor growth = assay: different concentrations of BMOV on tumor growth (Example 23); type: in vivo, mice; design: Tumour weight / Tumour weight, Means: unit not given here; conditions: for Tumour weight: individual mice
Description: In this experiment we determined the optimum concentration for inhibition of tumor growth as follows.
Forty mice were subcutaneously injected with tumor cells (10×10^6/ml)on day 1. On day 5, the mice were divided into five groups as follows: Group 1; control, PBS injected; Group 2: 0.1% BMOV injected; Group 3: 0.25% BMOV injected; Group 4: 0.5% BMOV injected and; Group 5: 0.75% BMOV injected. All the mice were injected (I.P.) with 2 mg NAC before injection of BMOV. […] The effective concentrations of BMOV are from 0.1% to 0.75%.

IL-1α = assay: synovial IL-1α expression in arthritic rats (Northern blot); type: in vivo, rat; conditions: BMOV-treated (with NAC) vs control, Day 18
Description: (§1) Collagenase, stromelysin, and IL-1 expression were quantitated in each group of rats. Selected rats in each group were sacrificed on Day 18 post arthritis onset to measure collagenase, stromelysin, and IL-1 expression via the Northern Blot. Synovial biopsies were pooled and homogenized in the presence of RNASTAT-60 (Tel Test). Total RNA was isolated following the manufacturer's instructions, washed in 70% ethanol, and dissolved in 30 μl RNA loading buffer (Sigma) containing ethidium bromide. The RNA was electrophoresed on a 1% agarose formaldehyde gel and transferred to 0.45 μm nylon filter membrane (Magna NT, MSL). The blot was prehybridised in 50% formamide, 5×SSPE, 5×dendhardts, 1% SDS, 200 μg/ml ssDNA and 50 μg/ml tRNA. The rat collagenase cDNA (bp. 1-550 of locus RATCOL genbank accession M60616), rat stromelysin (ATCC, Rockville, Md.), or rat […] (genbank accession D00403) were labeled by random primed incorporation of ^32 P-dATP (Random Primed Labeling Kit, Boerhinger Manheim). After overnight hybridization at 42° C. overnight, the blot was washed in 1×SSPE at 37° C. and exposed to Kodak X-Ornat AP film for 24 hours at -70° C. with an intensifying screen. The blot was stripped with 50% formamide in 2×SSPE, checked for residual counts and reprobed. The resulting autoradiographs were digitized and analyzed with NIH image software and normalized for RNA loading.

stromelysin = assay: synovial stromelysin expression in arthritic rats (Northern blot); type: in vivo, rat; conditions: BMOV-treated (with NAC) vs control, Day 18
Description: as §1

[1] = test system: non-proliferating chondrocytes; assay: viability of non-proliferating chondrocytes (high cell density); type: cell-based; conditions: 0-50 μM, 48 hours
Description: In order to compare the effect of orthovanadate on non-proliferating and proliferating chondrocytes, chondrocytes were plated at both high cell density (2×10^6 to 4×10^6 cells/per well on a six well plate) (nonproliferating) and at a lower cell density (5×10^5 to 1×10^6 cells/per well on a six well plate) (proliferating) and then maintained for 48 hours. The cells were then incubated in media (HAMS F12) containing 0-50 μM Orthovanadate for an additional 48 hours. The cells were harvested and the number of viable cells determined.

MCF7 (WT) = assay: MTT cytotoxicity assay, MCF7 (WT); type: cell-based, human; conditions: MCF7 (WT), 72 hours; read-out: IC50 Value
Description: The relative cytotoxicity of various compounds on tumor cell lines was investigated as follows. Cytotoxicity was measured by the MTT microculture tetrazolium colorimetric assay for all cell lines. The relative cytotoxicity of Na3 VO4 and VOSO4 was investigated using the following tumor cell lines: P388(WT) murine leukemia, P388 (ADR) murine leukemia, Lewis murine lung, MCF7 (WT) human breast, […] human lung, K562 human erythroleukemia, A431 human epidermal, LS180 human colon and SK-OV-3 human ovarian. The relative cytotoxicity of doxorubicin, Na3 VO4 and VOSO4 was investigated using the following tumor cell lines: P388(WT) murine leukemia, P388 (ADR) murine leukemia, MCF7(WT) human breast and MCF7 (ADR) human breast. The relative cytotoxicity of BMOV, BEOV and naglivan was investigated using the following tumor cell lines: P388(WT) murine leukemia, P388 (ADR) murine leukemia, Lewis murine lung, H460 human lung, K562 human erythroleukemia, and SK-OV-3 human ovarian.
The cells were plated (number of cells/well was different from cell line to cell depending on the dividing rate) in a 96-well microculture plate 24 hours prior to the delivery of the vanadium compounds. Serial concentrations of solutions of the test compounds (0.05-100 μM) were delivered to the corresponding wells. A blank column (without cells) and a control column (with cells without vanadium) were left. The cells were incubated for 72 hours continuously. An MTT solution was added to each well after this incubation period and the cells were incubated for 4 more hours for the completion of the dyeing process. The medium was removed find DMSO was added to each well. The absorbance of each well was read with a Titertek Multiskan (310C) spectrophotometer at 570 nm. The percentage of the absorbance of each vanadium concentration relative to the control calculated and the value of the 50% growth inhibition concentration (IC50) was obtained from the % control versus concentration plot. Each assay was repeated three times and the reported IC50 values were the mean of these three runs.

tumor cell lines = assay: cell death of proliferating tumor cell lines; type: cell-based
Description: (§2) Fos and jun activity are also required for cellular proliferation in many tumor cell lines. Accordingly, the effect of orthovanadate on adherent cells and cell suspensions were examined. MDAY-D2 (a mouse lymphoid cell line grown in suspension) and HTB14 cells (an adherent human primary astrocytoma cell line) were incubated in media containing 0-50 μM orthovanadate for 48 hours. The cells were harvested and the number of viable cells determined.

MDAY-D2 cells = assay: viability of MDAY-D2 cells; type: cell-based, mouse; conditions: 0-50 μM, 48 hours
Description: as §2
Three different forms of vanadyl compounds were examined for their effect on viability of cancer cell lines. MDAY-D2 cells were incubated in media containing 0-50 μM orthovanadate, vanadyl sulphate, or vanadyl hydroperoxide for 48 hours. The cells were harvested and the number of viable cells determined. […] Although there were slight differences in sensitivity, the overall cell death was similar.

Row | Structure (SMILES) | Tumour weight (tumor growth; 0.1% BMOV + 2 mg NAC i.p.) | Tumour weight, Means (tumor growth; 0.1% BMOV + NAC) | Tumour weight (tumor growth; 0.25% BMOV + 2 mg NAC i.p.) | Tumour weight, Means (tumor growth; 0.25% BMOV + NAC) | Tumour weight (tumor growth; 0.5% BMOV + 2 mg NAC i.p.) | Tumour weight, Means (tumor growth; 0.5% BMOV + NAC) | Tumour weight (tumor growth; 0.75% BMOV + 2 mg NAC i.p.) | Tumour weight, Means (tumor growth; 0.75% BMOV + NAC) | death of animal (tumor growth; 0.75% BMOV + NAC, mouse 8) | percent inhibition of IL-1α gene expression (IL-1α) [%] | percent inhibition of stromelysin gene expression (stromelysin) [%] | effect on chondrocytes plated at high cell density [1] | IC50 (MCF7 (WT)) [µM] | cell death (tumor cell lines; 0-50 μM) | cell death complete (tumor cell lines; within 3 days of continuous treatment) | toxicity to MDAY-D2 cells (MDAY-D2 cells) | killing of MDAY-D2 cells (MDAY-D2 cells; three forms compared)
1 | Cc1occc(=O)c1[O-].Cc1occc(=O)c1[O-].[O]=[V+2] [BMOV, bis(methylmaltolato) oxovanadium (IV)] | 0.44 and 0.40 and 0.48 and 0.62 and 0.54 and 0.84 and 0.18 and 0.87 | 0.55 | 0.14 and 0.23 and 0.73 and 0.04 and 0.21 and 0 | 0.18 | 0.40 and 0.20 and 0.07 and 0.17 and 0.06 and 0 | 0.22 | 0.07 and 0.16 and 0.08 and 0.21 and 0.13 and 0 | 0.09 | died | 85 | 58 | – | – | – | – | – | –
2 | [Na+].[Na+].[Na+].[O]=[V]([O-])([O-])[O-] [orthovanadate, sodium orthovanadate] | – | – | – | – | – | – | – | – | – | – | – | did not effect | 8.5 | concentration dependent increase in cell death | over 98% | toxic | equally effective
